# Data from patent US20240384268A1, “Oligonucleotides” (Hudson Institute of Medical Research, priority 2021, published 2024).
# In the oligonucleotide strings, read from the 5' end, every base follows the letter of its sugar. An asterisk marks phosphorothioate; unmarked linkages are phosphodiester. Other units and linkages are bracketed, terminal groups are in braces. A string of capitals states the bases alone. d = 2'-deoxy (DNA); m = 2'-O-methyl
# Target: T1, human TLR7 (Homo sapiens, UniProt Q9NYK1)
# T1 construct: HA; host or cells: 293XL-hTLR7-HA (HEK293)
# T1 sequence (Q9NYK1 27-1049): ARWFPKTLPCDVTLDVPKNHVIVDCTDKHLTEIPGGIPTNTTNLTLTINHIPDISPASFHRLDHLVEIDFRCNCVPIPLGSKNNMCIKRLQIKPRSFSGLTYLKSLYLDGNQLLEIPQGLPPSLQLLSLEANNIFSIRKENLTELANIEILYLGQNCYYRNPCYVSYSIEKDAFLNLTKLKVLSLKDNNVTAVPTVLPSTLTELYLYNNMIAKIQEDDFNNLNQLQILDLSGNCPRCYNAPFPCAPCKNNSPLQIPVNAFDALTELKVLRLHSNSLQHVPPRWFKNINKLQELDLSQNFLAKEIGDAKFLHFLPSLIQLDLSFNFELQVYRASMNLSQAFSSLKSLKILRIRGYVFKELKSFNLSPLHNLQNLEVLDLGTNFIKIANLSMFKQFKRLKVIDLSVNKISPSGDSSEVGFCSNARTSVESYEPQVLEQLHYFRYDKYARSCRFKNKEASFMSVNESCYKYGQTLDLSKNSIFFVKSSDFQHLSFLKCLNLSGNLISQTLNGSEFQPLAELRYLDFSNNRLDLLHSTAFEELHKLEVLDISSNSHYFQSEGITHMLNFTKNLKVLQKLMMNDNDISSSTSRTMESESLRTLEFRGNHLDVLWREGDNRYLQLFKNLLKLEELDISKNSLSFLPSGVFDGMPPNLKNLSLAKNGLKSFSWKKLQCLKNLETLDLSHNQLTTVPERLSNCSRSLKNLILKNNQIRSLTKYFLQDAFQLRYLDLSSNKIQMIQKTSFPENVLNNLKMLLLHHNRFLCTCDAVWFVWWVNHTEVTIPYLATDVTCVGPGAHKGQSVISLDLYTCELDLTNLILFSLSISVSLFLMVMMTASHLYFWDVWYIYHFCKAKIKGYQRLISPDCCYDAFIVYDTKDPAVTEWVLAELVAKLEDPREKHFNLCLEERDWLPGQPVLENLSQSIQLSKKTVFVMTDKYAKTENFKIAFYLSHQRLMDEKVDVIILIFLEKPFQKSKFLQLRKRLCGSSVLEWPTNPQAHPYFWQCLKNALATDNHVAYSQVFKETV
# Test: HEK-TLR7 NF-κB-luciferase reporter, R848 stimulation
# Assay type: cell-based
# Conditions: HEK-TLR7; 100 nM ASO; percentage of R848 without ASO (Alharbi et al., 2020)
row,Substance,TLR7-100 nM: averaged NF-κB-Luciferase relative to R848
1,mC*mA*mU*mC*mC*C*T*T*C*T*G*C*T*G*C*mC*mA*mA*mG*mC (mC*mA*mU*mC*mC*dC*dT*dT*dC*dT*dG*dC*dT*dG*dC*mC*mA*mA*mG*mC; antisense) [[LINC-PINT]98],54.34%
2,mC*mC*mA*mU*mC*C*C*T*T*C*T*G*C*T*G*mC*mC*mA*mA*mG (mC*mC*mA*mU*mC*dC*dC*dT*dT*dC*dT*dG*dC*dT*dG*mC*mC*mA*mA*mG; antisense) [ILING-PINT199],52.57%
3,"mC*mC*mA*mU*mG*T*C*C*C*A*G*G*C*C*T*mC*mC*mA*mG*mU (CCAUGTCCCAGGCCTCCAGU; sugars from the 5' end m5 d10 m5, all phosphorothioate, methylation of C not given here) [[CDKN2B-AS1]2227]",41.39%
4,mC*mC*mC*mU*mA*A*T*G*C*T*T*T*C*C*T*mC*mU*mC*mC*mA (mC*mC*mC*mU*mA*dA*dT*dG*dC*dT*dT*dT*dC*dC*dT*mC*mU*mC*mC*mA; antisense) [[LINC-PINT1877 KL],58.39%
5,mC*mC*mC*mU*mU*C*T*C*T*C*T*G*G*T*C*mC*mC*mA*mU*mC (mC*mC*mC*mU*mU*dC*dT*dC*dT*dC*dT*dG*dG*dT*dC*mC*mC*mA*mU*mC; antisense) [[LINC-PINT]114],49.59%
6,mC*mC*mU*mA*mG*A*A*A*G*A*A*G*C*A*A*mA*mG*mA*mU*mU (mC*mC*mU*mA*mG*dA*dA*dA*dG*dA*dA*dG*dC*dA*dA*mA*mG*mA*mU*mU) [[CDKN2B-AS1]1522],57.20%
7,mC*mC*mU*mU*mC*T*C*T*C*T*G*GT*C*C*mC*mA*mU*mC*mC (CCUUCTCTCTGGTCCCAUCC; antisense; chemistry not fully specified) [[LINC-PINT]113],60.90%
8,mC*mC*mU*mU*mC*T*G*C*T*G*C*C*A*A*G*mC*mC*mC*mC*mA (mC*mC*mU*mU*mC*dT*dG*dC*dT*dG*dC*dC*dA*dA*dG*mC*mC*mC*mC*mA; antisense) [[LINC-PINT]94],85.57%
9,mC*mU*mC*mU*mC*T*G*G*T*C*C*C*A*T*C*mC*mC*mU*mU*mC (mC*mU*mC*mU*mC*dT*dG*dG*dT*dC*dC*dC*dA*dT*dC*mC*mC*mU*mU*mC; antisense) [[LINC-PINT]109],84.97%
10,mC*mU*mU*mC*mU*C*T*C*T*G*G*T*C*C*C*mA*mU*mC*mC*mC (mC*mU*mU*mC*mU*dC*dT*dC*dT*dG*dG*dT*dC*dC*dC*mA*mU*mC*mC*mC) [[LINC-PINT]112],56.20%
11,mC*mU*mU*mU*mA*T*A*T*T*A*C*A*A*A*G*mC*mU*mA*mC*mU (mC*mU*mU*mU*mA*dT*dA*dT*dT*dA*dC*dA*dA*dA*dG*mC*mU*mA*mC*mU; antisense) [[LINC-PINT]2755],54.83%
12,"mG*mA*mA*mA*mA*G*A*T*T*A*T*C*T*T*C*mU*mU*mU*mU*mA (GAAAAGATTATCTTCUUUUA; sugars from the 5' end m5 d10 m5, all phosphorothioate, methylation of C not given here) [[CDKN2B-AS1]2134]",34.44%
13,"mG*mA*mU*mG*mG*T*T*C*C*A*G*T*C*C*C*mU*mC*mU*mU*mC (GAUGGTTCCAGTCCCUCUUC; antisense; sugars from the 5' end m5 d10 m5, all phosphorothioate, methylation of C not given here) [[LINC-PINT]1497.1]",22.32%
14,mG*mA*mU*mU*mA*A*A*A*C*A*G*A*T*T*A*mA*mU*mA*mC*mA (mG*mA*mU*mU*mA*dA*dA*dA*dC*dA*dG*dA*dT*dT*dA*mA*mU*mA*mC*mA) [[CDKN2B-AS1]1773],21.92%
15,"mG*mC*mA*mA*mG*G*C*A*G*A*G*A*A*A*C*mU*mC*mC*mA*mG (GCAAGGCAGAGAAACUCCAG; sugars from the 5' end m5 d10 m5, all phosphorothioate, methylation of C not given here) [[LINC-PINT]1315 KL]","19,99%"
16,"mG*mC*mG*mU*mA*G*T*T*T*C*T*C*T*T*C*mC*mU*mC*mC*mC (GCGUAGTTTCTCTTCCUCCC; sugars from the 5' end m5 d10 m5, all phosphorothioate, methylation of C not given here) [[LINC-PINT]935 KL]",27.23%

row,Substance,TLR7-100 nM: averaged NF-κB-Luciferase relative to R848
1,"mG*mG*mA*mU*mU*A*A*A*A*C*A*G*A*T*T*mA*mA*mU*mA*mC (GGAUUAAAACAGATTAAUAC; sugars from the 5' end m5 d10 m5, all phosphorothioate, methylation of C not given here) [[CDKN2B-AS1]1774]",27.16%
2,"mG*mG*mG*mU*mC*T*C*C*T*C*C*A*C*A*C*mC*mC*mU*mU*mC (GGGUCTCCTCCACACCCUUC; antisense; sugars from the 5' end m5 d10 m5, all phosphorothioate, methylation of C not given here) [[LINC-PINT]128]",21.47%
3,"mG*mG*mU*mC*mC*C*A*T*C*C*C*T*T*C*T*mG*mC*mU*mG*mC (GGUCCCATCCCTTCTGCUGC; sugars from the 5' end m5 d10 m5, all phosphorothioate, methylation of C not given here) [[LINC-PINT]103]",20.75%
4,mG*mG*mU*mC*mU*C*C*T*C*C*A*C*A*C*C*mC*mU*mU*mC*mU (mG*mG*mU*mC*mU*dC*dC*dT*dC*dC*dA*dC*dA*dC*dC*mC*mU*mU*mC*mU; antisense) [[LINC-PINT]127],23.66%
5,"mG*mG*mU*mG*mG*C*C*A*C*A*G*G*C*A*A*mC*mG*mU*mC*mA (GGUGGCCACAGGCAACGUCA; antisense; sugars from the 5' end m5 d10 m5, all phosphorothioate, methylation of C not given here) [[CDKN2B-AS1]2196]",39.07%
6,mG*mU*mC*mA*mA*A*C*C*T*A*G*A*A*A*G*mA*mA*mG*mC*mA (mG*mU*mC*mA*mA*dA*dC*dC*dT*dA*dG*dA*dA*dA*dG*mA*mA*mG*mC*mA; antisense) [[CDKN2B-AS1]1528],23.64%
7,mG*mU*mC*mC*mC*A*G*G*C*C*T*C*C*A*G*mU*mG*mU*mC*mU (mG*mU*mC*mC*mC*dA*dG*dG*dC*dC*dT*dC*dC*dA*dG*mU*mG*mU*mC*mU; antisense) [[CDKN2B-AS1]2223],19.01%
8,"mG*mU*mC*mC*mC*A*T*C*C*C*T*T*C*T*G*mC*mU*mG*mC*mC (GUCCCATCCCTTCTGCUGCC; antisense; sugars from the 5' end m5 d10 m5, all phosphorothioate, methylation of C not given here) [[LINC-PINT]102]",22.47%
9,mG*mU*mC*mC*mG*T*A*C*C*T*C*C*A*C*C*mC″mA*mC*mC*mG [[LINC-PINT]727.1],22.79%
10,mG*mU*mC*mU*mC*C*T*C*C*A*C*A*C*C*C*mU*mU*mC*mU*mC (mG*mU*mC*mU*mC*dC*dT*dC*dC*dA*dC*dA*dC*dC*dC*mU*mU*mC*mU*mC; antisense) [[LINC-PINT]126],25.01%
11,mG*mU*mU*mC*mA*G*T*C*A*G*A*T*C*G*C*mU*mG*mG*mG*mA (mG*mU*mU*mC*mA*dG*dT*dC*dA*dG*dA*dT*dC*dG*dC*mU*mG*mG*mG*mA) [[LINC-PINT]412 KL],17.46%
12,mU*mA*mA*mA*mA*T*A*A*G*G*G*G*A*A*T*mA*mG*mG*mG*mG (mU*mA*mA*mA*mA*dT*dA*dA*dG*dG*dG*dG*dA*dA*dT*mA*mG*mG*mG*mG) [[CDKN2B-AS1]80],40.95%
13,mU*mC*mC*mC*mA*A*C*T*C*T*T*C*T*A*A*mC*mU*mC*mG*mU (mU*mC*mC*mC*mA*dA*dC*dT*dC*dT*dT*dC*dT*dA*dA*mC*mU*mC*mG*mU; antisense) [[LINC-PINT]1284 KL],40.79%
14,"mU*mC*mC*mC*mA*T*C*C*C*T*T*C*T*G*C*mU*mG*mA*mC*mA (UCCCATCCCTTCTGCUGACA; sugars from the 5' end m5 d10 m5, all phosphorothioate, methylation of C not given here) [[LINC-PINT]101]",43.08%
15,mU*mC*mU*mC*mC*A*T*G*T*C*C*C*A*G*G*mC*mC*mU*mC*mC (mU*mC*mU*mC*mC*dA*dT*dG*dT*dC*dC*dC*dA*dG*dG*mC*mC*mU*mC*mC; antisense) [[CDKN2B-AS1]2230],43.45%
